Test results taken from patent US8063221B2, “Aminoquinolones as GSK-3 inhibitors” (Kyorin Pharmaceutical Co., Ltd., priority 2006, dated 2011).
Values after ≈ are worked out from the molar mass of the structure shown. Read-outs that look alike come from different tables or passages of the source.

Columns and labels:
[1] = target: T1, recombinant full-length human GSK3β (Homo sapiens, UniProt P49841); experiment: Luciferase-coupled cell-free GSK3β kinase assay; type: biochemical
T1 construct: recombinant full-length human GSK3β (Upstate); purchased Upstate
Experimental: For compounds in Tables 1 and 2, IC50 (μM) for GSK3β enzyme in cell free assay is provided as follows:
Luciferase-Coupled Protein Kinase Assays
All coupled-luciferase assays are performed by using a brief incubation with firefly luciferase (Promega) after completion of the kinase assay. KinaseGlo Plus is used for reading kinase reactions with ATP>10 μM, KinaseGlo for ATP <10 μM. The assay volume in a 384-well plate for the kinase reaction is 30 microliters.
10-25 ng of recombinant full-length human GSK3β (Upstate) is incubated in the presence or absence of compound at varying concentrations for 1 hour at 30 degrees Celsius in 20 mM MOPS, pH 7.0, 10 mM magnesium acetate, 0.2 mM EDTA, 2 mM EGTA, 30 mM magnesium chloride, 62.5 μM phospho-glycogen synthase peptide-2, 5 μM ATP, 10 mM β-glycerol phosphate, 1 mM sodium orthovanadate and 1 mM dithiothreitol. Proceed to KinaseGlo luciferase reaction (see below).
Following the completion of the kinase reaction an equal volume of KinaseGlo or KinaseGlo Plus luciferase reagent (Promega) is added and the luminescence read using a luminescence plate reader within 5-10 minutes. Compound activity is expressed as % inhibition relative to maximal inhibition observed at the maximal dose and IC50 values then calculated using curve fitting software (GraphPad Prizm).

E. coli, ATCC8739 = experiment: Antibacterial activity (MIC), E. coli; type: cell-based; conditions: Escherichia coli
Source text: (§1) As used herein, a minimum inhibitory concentration (MIC) for bacterial growth assay is the lowest level of a compound needed to cause an inhibition to bacterial growth in culture medium. In certain embodiments, the antibacterial activity of compounds herein, measured as MIC.
(§2) In certain embodiments, GSK3 inhibitors provided herein are substantially free of antibacterial activity or having very low antibacterial activity. The antibacterial activity can be measured by methods known in the art by estimating a minimum inhibitory concentration (MIC) for test compounds. A MIC is the lowest level of a compound needed to cause an inhibition to bacterial growth in a culture medium. […] (Clinical and Laboratory Standards Institute. Methods for Dilution Antimicrobial Susceptibility Tests for Bacteria That Grow Aerobically; Approved Standard-Sixth Edition: CLSI document […]. CLSI, Wayne, Pa. (2003))
(§3) Antibacterial activity for E. coli, ATCC8739 andS. aureus Smith expressed as MIC (μM) is provided as follows: […]

S. aureus Smith = experiment: Antibacterial activity (MIC), S. aureus; type: cell-based; conditions: Staphylococcus aureus
Source text: as §1, §2, §3

[2] = ATCC8739, Table 1, E. coli ATCC8739, read-out: Antibacterial MIC (μM) E.Coli
[3] = Table 1, read-out: Antibacterial MIC (μM) S. aureus Smith
[4] = ATCC8739, Table 2, E. coli ATCC8739, read-out: Antimicrobial MIC [μM] E. Coli
[5] = Table 2, S. aureus Smith, read-out: Antimicrobial MIC [μM] S. aureus
[6] = ATCC8739, read-out: Antibacterial MIC (μM) E.Coli
[7] = read-out: Antibacterial MIC (μM) S. aureus Smith

T1 sequence (P49841 whole entry): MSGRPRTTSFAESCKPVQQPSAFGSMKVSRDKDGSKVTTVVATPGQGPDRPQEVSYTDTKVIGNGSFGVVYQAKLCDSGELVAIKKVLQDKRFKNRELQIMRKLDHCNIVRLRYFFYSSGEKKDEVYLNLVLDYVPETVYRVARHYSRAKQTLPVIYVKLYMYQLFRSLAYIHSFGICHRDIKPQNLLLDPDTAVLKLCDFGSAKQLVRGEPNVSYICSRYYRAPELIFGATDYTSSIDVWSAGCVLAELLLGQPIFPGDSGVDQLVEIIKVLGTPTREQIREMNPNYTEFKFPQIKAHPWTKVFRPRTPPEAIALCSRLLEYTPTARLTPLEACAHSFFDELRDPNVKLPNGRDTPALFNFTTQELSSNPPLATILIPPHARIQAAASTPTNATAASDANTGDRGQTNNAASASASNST

Compound	IC50 ([1]; Table 1) [nM]	MIC (E. coli, ATCC8739; [2]) [µM]	MIC (S. aureus Smith; [3]) [µM]	IC50 ([1]; Table 2) [nM]	MIC (E. coli, ATCC8739; [4]) [µM]	MIC (S. aureus Smith; [5]) [µM]	MIC (E. coli, ATCC8739; [6]) [µM]	MIC (S. aureus Smith; [7]) [µM]
Nc1cc(NCCNc2cccc3ccccc23)cc2c1c(=O)ccn2C1CC1 [compound 66]	< 100	10 to 50 (≈ 3.84 to 19.2 µg/mL)	10 to 50 (≈ 3.84 to 19.2 µg/mL)	–	–	–	–	–
CC(C)[C@H]1COc2c(NCCCn3ccnc3)c(F)c(N)c3c(=O)c(C(=O)O)cn1c23 [compound 54]	–	–	–	< 100	> 50	10 to 50 (≈ 4.29 to 21.5 µg/mL)	–	–
COc1c(NCCc2cccnc2)c(F)c(N)c2c(=O)c(C(=O)O)cn(C3CC3)c12 [compound 85]	> 1000	–	–	–	–	–	0.5 to 10 (≈ 0.206 to 4.12 µg/mL)	< 0.5
CC(C)OCCCNc1c(F)c(N)c2c(=O)ccn(C3CCCC3)c2c1F [compound 75]	100 to 500	> 50	> 50	–	–	–	–	–
Nc1c(F)c(NCCc2ccncc2)c(F)c2c1c(=O)ccn2C1CCCC1 [compound 73]	< 100	> 50	> 50	–	–	–	–	–
CC(C)OCCCNc1c(F)c(N)c2c(=O)c(C(=O)O)cn(C3CC3)c2c1F [compound 17]	100 to 500	–	–	–	–	–	0.5 to 10 (≈ 0.198 to 3.95 µg/mL)	0.5 to 10 (≈ 0.198 to 3.95 µg/mL)
CC1(C)COc2c(NCCNc3ccccn3)c(F)c(N)c3c(=O)c(C(=O)O)cn1c23 [compound 16]	–	–	–	< 100	> 50	> 50	–	–
Nc1c(F)c(NCCCn2ccnc2)c(F)c2c1c(=O)c(C(=O)O)cn2CCCn1ccnc1 [compound 61]	100 to 500	–	–	–	–	–	> 50	> 50
Nc1c(F)c(NCCc2ccncc2)c(F)c2c1c(=O)ccn2C1CC1 [compound 11]	100 to 500	> 50	> 50	–	–	–	–	–

Now from value to molecule, other results behind:

IC50 ([1]; Table 1) [nM]	MIC (E. coli, ATCC8739; [2]) [µM]	MIC (S. aureus Smith; [3]) [µM]	IC50 ([1]; Table 2) [nM]	MIC (E. coli, ATCC8739; [4]) [µM]	MIC (S. aureus Smith; [5]) [µM]	Compound	MIC (E. coli, ATCC8739; [6]) [µM]	MIC (S. aureus Smith; [7]) [µM]
< 100	> 50	> 50	–	–	–	Nc1c(F)c(NCCCn2ccnc2)c(F)c2c1c(=O)c(C(=O)O)cn2CCc1ccccc1 [compound 48]	–	–
100 to 500	10 to 50 (≈ 4.26 to 21.3 µg/mL)	0.5 to 10 (≈ 0.213 to 4.26 µg/mL)	–	–	–	COc1c(NCCNc2ccccc2)c(F)c(N)c2c(=O)c(C(=O)O)cn(C3CC3)c12 [compound 84]	–	–
100 to 500	10 to 50 (≈ 4.35 to 21.8 µg/mL)	10 to 50 (≈ 4.35 to 21.8 µg/mL)	–	–	–	Nc1c(F)c(NCCNc2ccccn2)c(F)c2c1c(=O)ccn2CCc1ccccc1 [compound 63]	–	–
–	–	–	< 100	0.5 to 10 (≈ 0.233 to 4.65 µg/mL)	0.5 to 10 (≈ 0.233 to 4.65 µg/mL)	CC1(C)COc2c(NCCCn3cnc4ccccc43)c(F)c(N)c3c(=O)c(C(=O)O)cn1c23 [compound 37]	–	–
–	–	–	> 1000	> 50	> 50	Nc1c(F)c(NCCNc2ccccn2)c(F)c2c1c(=O)cc(C(=O)O)n2C1CC1 [Example 136]	–	–
100 to 500	0.5 to 10 (≈ 0.218 to 4.35 µg/mL)	0.5 to 10 (≈ 0.218 to 4.35 µg/mL)	–	–	–	Nc1c(F)c(NCCc2ccc(F)cc2F)c(F)c2c1c(=O)c(C(=O)O)cn2C1CC1 [compound 19]	–	–
100 to 500	10 to 50 (≈ 4.34 to 21.7 µg/mL)	10 to 50 (≈ 4.34 to 21.7 µg/mL)	–	–	–	Nc1c(F)c(NCCCc2ccccc2)c(F)c2c1c(=O)ccn2CCc1ccccc1 [compound 58]	–	–
–	–	–	100 to 500	> 50	> 50	CC1(C)Cn2cc(C(=O)O)c(=O)c3c(N)c(F)c(NCCCn4ccnc4)c(c32)O1 [compound 58]	–	–
< 100	10 to 50 (≈ 4.64 to 23.2 µg/mL)	10 to 50 (≈ 4.64 to 23.2 µg/mL)	–	–	–	Nc1c(F)c(NCCc2ccncc2)c(F)c2c1c(=O)c(C(=O)O)cn2CCc1ccccc1 [compound 47]	–	–
–	–	–	100 to 500	0.5 to 10 (≈ 0.199 to 3.98 µg/mL)	0.5 to 10 (≈ 0.199 to 3.98 µg/mL)	CC1COc2c(NCCc3ccncc3)c(F)c(N)c3c(=O)c(C(=O)O)cn1c23 (stereo not drawn) [compound 3]	–	–
–	–	–	100 to 500	> 50	0.5 to 10 (≈ 0.197 to 3.93 µg/mL)	CC(C)OCCCNc1c(F)c(N)c2c(=O)c(C(=O)O)cn3c2c1OC[C@@H]3C [compound 21]	–	–
–	–	–	< 100	10 to 50 (≈ 4.44 to 22.2 µg/mL)	0.5 to 10 (≈ 0.222 to 4.44 µg/mL)	COc1c(NCCNc2ccccn2)c(Cl)c(N)c2c(=O)c(C(=O)O)cn(C3CC3)c12 [Example 121]	–	–
–	–	–	< 100	0.5 to 10 (≈ 0.24 to 4.8 µg/mL)	0.5 to 10 (≈ 0.24 to 4.8 µg/mL)	CC(C)[C@@H]1COc2c(NCCCn3cnc4ccccc43)c(F)c(N)c3c(=O)c(C(=O)O)cn1c23 [compound 65]	–	–
< 100	> 50	> 50	–	–	–	Nc1c(F)c(NCCCn2ccnc2)c(F)c2c1c(=O)c(C(=O)O)cn2C1CCCC1 [compound 54]	–	–
